Experimental data from ChEMBL document CHEMBL4411307, “N,N'-diaryl-bishydrazones in a biphenyl platform: Broad spectrum antifungal agents” (Eur J Med Chem, 2019).
In brackets after ≈: the same amount, converted by molar mass. Activity calls are given as the source filed them. The rule behind the calls is not given here.

Legend:
[1] = system: Candida albicans; assay: Antifungal activity against fluconazole/ITC-resistant Candida albicans ATCC 90819 measured after 48 hrs by CLSI M27-A3 protocol based method; assay type: functional; conditions: ATCC 90819, 48 h
[2] = system: Nakaseomyces glabratus; assay: Antifungal activity against Candida glabrata ATCC 2001 measured after 48 hrs by CLSI M27-A3 protocol based method; assay type: functional; conditions: CBS 138, 48 h
[3] = system: Listeria monocytogenes; assay: Antibacterial activity against Listeria monocytogenes; assay type: functional, organism-based
[4] = system: Candida parapsilosis; assay: Antifungal activity against Candida parapsilosis ATCC 22019 measured after 48 hrs by CLSI M27-A3 protocol based method; assay type: functional; conditions: Lodderomyces parapsilosis, ATCC 22019, 48 h
[5] = system: Candida albicans; assay: Antifungal activity against fluconazole/ITC-susceptible Candida albicans ATCC MYA-2310 measured after 48 hrs by CLSI M27-A3 protocol based method; assay type: functional; conditions: ATCC MYA-2310, 48 h
[6] = system: Candida albicans; assay: Antifungal activity against fluconazole/ITC-resistant Candida albicans ATCC MYA-1003 measured after 48 hrs by CLSI M27-A3 protocol based method; assay type: functional; conditions: ATCC MYA-1003, 48 h
[7] = system: Enterococcus; assay: Antibacterial activity against vancomycin-resistant Enterococcus; assay type: functional, organism-based
[8] = system: Aspergillus terreus; assay: Antifungal activity against Aspergillus terreus ATCC MYA-3633 measured after 48 hrs by CLSI M38-A2 protocol based method; assay type: functional; conditions: ATCC MYA-3633, 48 h
[9] = system: Aspergillus flavus; assay: Antifungal activity against Aspergillus flavus ATCC MYA-3631 measured after 48 hrs by CLSI M38-A2 protocol based method; assay type: functional; conditions: ATCC MYA-3631, 48 h
[10] = system: Candida albicans; assay: Antifungal activity against fluconazole/ITC-resistant Candida albicans ATCC MYA-1237 measured after 48 hrs by CLSI M27-A3 protocol based method; assay type: functional; conditions: ATCC MYA-1237, 48 h
[11] = system: Staphylococcus aureus; assay: Antibacterial activity against methicillin-resistant Staphylococcus aureus; assay type: functional, organism-based
[12] = system: Pichia kudriavzevii; assay: Antifungal activity against Candida krusei ATCC 6258 measured after 48 hrs by CLSI M27-A3 protocol based method; assay type: functional; conditions: ATCC 6258, 48 h
[13] = system: Candida albicans; assay: Antifungal activity against fluconazole/ITC-resistant Candida albicans ATCC 10231 measured after 48 hrs by CLSI M27-A3 protocol based method; assay type: functional; conditions: ATCC 10231, 48 h
[14] = system: Candida albicans; assay: Antifungal activity against fluconazole/ITC-resistant Candida albicans ATCC 64124 measured after 48 hrs by CLSI M27-A3 protocol based method; assay type: functional; conditions: ATCC 64124, 48 h
[15] = system: Candida albicans; assay: Antifungal activity against fluconazole/ITC-susceptible Candida albicans ATCC MYA-2876 measured after 48 hrs by CLSI M27-A3 protocol based method; assay type: functional; conditions: ATCC MYA-2876, 48 h
[16] = system: Aspergillus nidulans; assay: Antifungal activity against Aspergillus nidulans ATCC 38163 measured after 48 hrs by CLSI M38-A2 protocol based method; assay type: functional; conditions: ATCC 38163, 48 h

Row | Compound | MIC [1] | MIC [2] | Activity [3] | MIC [4] | MIC [5] | MIC [6] | Activity [7] | MIC [8] | MIC [9] | MIC [10] | Activity [11] | MIC [12] | MIC [13] | MIC [14] | MIC [15] | MIC [16]
1 | Fc1ccccc1N/N=C/c1ccc(-c2ccc(/C=N/Nc3ccccc3F)cc2)cc1 | 31.3 mg/L (≈ 73.4 µM) | > 31.3 mg/L | inactive | > 31.3 mg/L | > 31.3 mg/L | 15.6 mg/L (≈ 36.6 µM) | inactive | > 31.3 mg/L | > 31.3 mg/L | > 31.3 mg/L | inactive | 3.9 mg/L (≈ 9.14 µM) | 3.9 mg/L (≈ 9.14 µM) | > 31.3 mg/L | 15.6 mg/L (≈ 36.6 µM) | 31.3 mg/L (≈ 73.4 µM)
2 | Fc1cc(F)cc(N/N=C/c2ccc(-c3ccc(/C=N/Nc4cc(F)cc(F)c4)cc3)cc2)c1 | > 31.3 mg/L | > 31.3 mg/L | inactive | > 31.3 mg/L | > 31.3 mg/L | > 31.3 mg/L | inactive | > 31.3 mg/L | > 31.3 mg/L | > 31.3 mg/L | inactive | > 31.3 mg/L | 15.6 mg/L (≈ 33.7 µM) | > 31.3 mg/L | > 31.3 mg/L | > 31.3 mg/L
3 | Fc1cc(F)cc(N/N=C/c2ccc(-c3cccc(/C=N/Nc4cc(F)cc(F)c4)c3)cc2)c1 | > 31.3 mg/L | > 31.3 mg/L | inactive | > 31.3 mg/L | > 31.3 mg/L | 31.3 mg/L (≈ 67.7 µM) | inactive | > 31.3 mg/L | > 31.3 mg/L | 31.3 mg/L (≈ 67.7 µM) | inactive | > 31.3 mg/L | 3.9 mg/L (≈ 8.43 µM) | 15.6 mg/L (≈ 33.7 µM) | 31.3 mg/L (≈ 67.7 µM) | > 31.3 mg/L
4 | Brc1ccc(N/N=C/c2ccc(-c3cccc(/C=N/Nc4ccc(Br)cc4)c3)cc2)cc1 | > 31.3 mg/L | 7.8 mg/L (≈ 14.2 µM) | inactive | > 31.3 mg/L | > 31.3 mg/L | 31.3 mg/L (≈ 57.1 µM) | inactive | > 31.3 mg/L | 31.3 mg/L (≈ 57.1 µM) | 7.8 mg/L (≈ 14.2 µM) | inactive | > 31.3 mg/L | 31.3 mg/L (≈ 57.1 µM) | 31.3 mg/L (≈ 57.1 µM) | 31.3 mg/L (≈ 57.1 µM) | > 31.3 mg/L
5 | CC(C)Oc1ccc(N/N=C/c2ccc(-c3ccc(/C=N/Nc4ccc(OC(C)C)cc4)cc3)cc2)cc1 | > 31.3 mg/L | > 31.3 mg/L | inactive | > 31.3 mg/L | > 31.3 mg/L | > 31.3 mg/L | inactive | > 31.3 mg/L | > 31.3 mg/L | > 31.3 mg/L | inactive | > 31.3 mg/L | > 31.3 mg/L | > 31.3 mg/L | > 31.3 mg/L | > 31.3 mg/L
6 | Clc1ccc(N/N=C/c2ccc(-c3cccc(/C=N/Nc4ccc(Cl)cc4)c3)cc2)cc1 | 15.6 mg/L (≈ 34 µM) | 15.6 mg/L (≈ 34 µM) | inactive | 3.9 mg/L (≈ 8.49 µM) | 31.3 mg/L (≈ 68.1 µM) | 3.9 mg/L (≈ 8.49 µM) | inactive | > 31.3 mg/L | > 31.3 mg/L | 15.6 mg/L (≈ 34 µM) | inactive | 31.3 mg/L (≈ 68.1 µM) | 7.8 mg/L (≈ 17 µM) | 7.8 mg/L (≈ 17 µM) | 15.6 mg/L (≈ 34 µM) | > 31.3 mg/L
7 | COc1cccc(N/N=C(\C)c2ccc(-c3ccc(/C(C)=N/Nc4cccc(OC)c4)cc3)cc2)c1 | 31.3 mg/L (≈ 65.4 µM) | 15.6 mg/L (≈ 32.6 µM) | inactive | 15.6 mg/L (≈ 32.6 µM) | 15.6 mg/L (≈ 32.6 µM) | 3.9 mg/L (≈ 8.15 µM) | inactive | > 31.3 mg/L | > 31.3 mg/L | 31.3 mg/L (≈ 65.4 µM) | inactive | 0.98 mg/L (≈ 2.05 µM) | 0.98 mg/L (≈ 2.05 µM) | 0.98 mg/L (≈ 2.05 µM) | 15.6 mg/L (≈ 32.6 µM) | > 31.3 mg/L
8 | COc1ccc(N/N=C(\C)c2ccc(-c3ccc(/C(C)=N/Nc4ccc(OC)cc4)cc3)cc2)cc1 | 31.3 mg/L (≈ 65.4 µM) | 7.8 mg/L (≈ 16.3 µM) | inactive | > 31.3 mg/L | 15.6 mg/L (≈ 32.6 µM) | 7.8 mg/L (≈ 16.3 µM) | inactive | > 31.3 mg/L | > 31.3 mg/L | 7.8 mg/L (≈ 16.3 µM) | inactive | 15.6 mg/L (≈ 32.6 µM) | 15.6 mg/L (≈ 32.6 µM) | 15.6 mg/L (≈ 32.6 µM) | 15.6 mg/L (≈ 32.6 µM) | > 31.3 mg/L
9 | Fc1cccc(N/N=C/c2ccc(-c3cccc(/C=N/Nc4cccc(F)c4F)c3)cc2)c1F | > 31.3 mg/L | > 31.3 mg/L | inactive | > 31.3 mg/L | > 31.3 mg/L | > 31.3 mg/L | inactive | > 31.3 mg/L | > 31.3 mg/L | > 31.3 mg/L | inactive | > 31.3 mg/L | > 31.3 mg/L | > 31.3 mg/L | > 31.3 mg/L | > 31.3 mg/L
10 | C/C(=N\NC(=N)N)c1ccc(-c2ccc(/C(C)=N/NC(=N)N)cc2)cc1 | 3.9 mg/L (≈ 11.1 µM) | 7.8 mg/L (≈ 22.3 µM) |  | 1.95 mg/L (≈ 5.56 µM) | 15.6 mg/L (≈ 44.5 µM) | 15.6 mg/L (≈ 44.5 µM) |  | > 31.3 mg/L | > 31.3 mg/L | 15.6 mg/L (≈ 44.5 µM) |  | 3.9 mg/L (≈ 11.1 µM) | 3.9 mg/L (≈ 11.1 µM) | 3.9 mg/L (≈ 11.1 µM) | 15.6 mg/L (≈ 44.5 µM) | 15.6 mg/L (≈ 44.5 µM)
11 | CC[C@H](C)C[C@H](C)CCCCCCCCC(=O)N[C@H]1C[C@@H](O)[C@@H](NCCN)NC(=O)[C@@H]2[C@@H](O)CCN2C(=O)[C@H]([C@H](O)CCN)NC(=O)[C@H]([C@H](O)[C@@H](O)c2ccc(O)cc2)NC(=O)[C@@H]2C[C@@H](O)CN2C(=O)[C@H]([C@@H](C)O)NC1=O [CASPOFUNGIN] | 0.12 mg/L (≈ 0.11 µM) | 0.06 mg/L (≈ 0.0549 µM) |  | 1.95 mg/L (≈ 1.78 µM) | 0.12 mg/L (≈ 0.11 µM) | 0.48 mg/L (≈ 0.439 µM) |  | > 31.3 mg/L | > 31.3 mg/L | 0.24 mg/L (≈ 0.22 µM) |  | 0.48 mg/L (≈ 0.439 µM) | 0.975 mg/L (≈ 0.892 µM) | 0.24 mg/L (≈ 0.22 µM) | 0.06 mg/L (≈ 0.0549 µM) | > 31.3 mg/L
12 | COc1ccccc1N/N=C(\C)c1ccc(-c2ccc(/C(C)=N/Nc3ccccc3OC)cc2)cc1 | > 31.3 mg/L | > 31.3 mg/L | inactive | 31.3 mg/L (≈ 65.4 µM) | > 31.3 mg/L | 31.3 mg/L (≈ 65.4 µM) | inactive | > 31.3 mg/L | > 31.3 mg/L | > 31.3 mg/L | inactive | 31.3 mg/L (≈ 65.4 µM) | 15.6 mg/L (≈ 32.6 µM) | > 31.3 mg/L | > 31.3 mg/L | > 31.3 mg/L
13 | N#Cc1ccc(N/N=C/c2ccc(-c3ccc(/C=N/Nc4ccc(C#N)cc4)cc3)cc2)cc1 | > 31.3 mg/L | > 31.3 mg/L | inactive | > 31.3 mg/L | > 31.3 mg/L | 31.3 mg/L (≈ 71.1 µM) | inactive | 31.3 mg/L (≈ 71.1 µM) | > 31.3 mg/L | > 31.3 mg/L | inactive | > 31.3 mg/L | > 31.3 mg/L | > 31.3 mg/L | > 31.3 mg/L | > 31.3 mg/L
14 | N=C(N)N/N=C/c1ccc(-c2ccc(/C=N/NC(=N)N)cc2)cc1 | > 31.3 mg/L | > 31.3 mg/L |  | 3.9 mg/L (≈ 12.1 µM) | > 31.3 mg/L | 15.6 mg/L (≈ 48.4 µM) |  | > 31.3 mg/L | > 31.3 mg/L | > 31.3 mg/L |  | 15.6 mg/L (≈ 48.4 µM) | 31.3 mg/L (≈ 97.1 µM) | > 31.3 mg/L | > 31.3 mg/L | > 31.3 mg/L
